What is called IC50 is the concentration that gives 50% inhibition.

Entries after “also recorded” stand apart in the source; their conditions may differ.

From patent publication US11987588B2, “Modulators of the beta-3 adrenergic receptor useful for the treatment or prevention of heart failure and disorders related thereto” (Arena Pharmaceuticals, Inc., priority 2017, dated 2024) come the findings set out here.

Sequence of Beta-3 Adrenergic Receptor (P13945 whole entry, species assumed): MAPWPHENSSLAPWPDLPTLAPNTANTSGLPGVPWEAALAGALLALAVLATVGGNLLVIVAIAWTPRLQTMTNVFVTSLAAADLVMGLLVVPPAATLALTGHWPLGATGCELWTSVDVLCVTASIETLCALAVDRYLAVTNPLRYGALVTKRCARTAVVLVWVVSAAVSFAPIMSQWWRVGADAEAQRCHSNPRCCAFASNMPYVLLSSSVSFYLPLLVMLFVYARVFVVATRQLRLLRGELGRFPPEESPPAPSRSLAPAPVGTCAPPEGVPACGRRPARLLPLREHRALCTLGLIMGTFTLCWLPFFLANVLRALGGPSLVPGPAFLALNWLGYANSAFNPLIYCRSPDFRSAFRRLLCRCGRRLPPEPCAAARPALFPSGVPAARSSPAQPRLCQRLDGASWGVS

The target of one assay is Beta-3 Adrenergic Receptor (Homo sapiens (Human), UniProt P13945). Put plainly: Homogeneous Time-Resolved Fluorescence (HTRF) cAMP antagonist assay, IC50 determination. It is filed as cell-based. The note with it: CHO-K1 cells stably expressing recombinant receptor, isoproterenol at EC90. In outline:
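Antagonist mode: isoproterenol at its predetermined EC90 added after compound to recombinant CHO-K1 cells in IBMX-containing PBS, 1 h, room temperature. Compounds tested as 5-fold, 10-point dilutions, top final typically 10 or 100 μM. HTRF signal converted to cAMP via standard curve, giving IC50.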
Background: Time-resolved FRET reads energy transfer from a long-lived donor to a nearby acceptor.
In the case of `CNS(=O)(=O)c1cccc(OC[C@@H](O)CN[C@H]2COC3(CCN(S(=O)(=O)c4cnc5cc[nH]c5c4)CC3)C2)c1` [Compound 505, 3-((S)-3-((R)-8-(1H-pyrrolo[3,2-b]pyridin-6-ylsulfonyl)-1-oxa-8-azaspiro[4.5]decan-3-ylamino)-2-hydroxypropoxy)-N-methylbenzenesulfonamide], the IC50 is 8.46 nM.

`CCCc1cnc(N2CCC3(CC2)C[C@@H](NC[C@H](O)COc2cccc(S(=O)(=O)NC)c2)CO3)nc1` [Compound 579, 3-((S)-2-hydroxy-3-((R)-8-(5-propylpyrimidin-2-yl)-1-oxa-8-azaspiro[4.5]decan-3-ylamino)propoxy)-N-methylbenzenesulfonamide]: the IC50 was 340 nM.

Take `CNS(=O)(=O)c1cccc(OC[C@@H](O)CN[C@H]2COC3(CCN(c4ncc(-c5ccccc5)cn4)CC3)C2)c1` [Compound 580, 3-((S)-2-hydroxy-3-((R)-8-(5-phenylpyrimidin-2-yl)-1-oxa-8-azaspiro[4.5]decan-3-ylamino)propoxy)-N-methylbenzenesulfonamide]: the IC50 is 262 nM.

For the molecule `CNS(=O)(=O)c1cccc(OC[C@@H](O)CN[C@H]2COC3(CCN(c4ncc(C(=O)OC)cn4)CC3)C2)c1` [Compound 581, methyl 2-((R)-3-((S)-2-hydroxy-3-(3-(N-methylsulfamoyl)phenoxy)propylamino)-1-oxa-8-azaspiro[4.5]decan-8-yl)pyrimidine-5-carboxylate], the IC50 amounted to 788 nM.

`CNS(=O)(=O)c1cccc(OC[C@@H](O)CN[C@H]2COC3(CCN(c4nccc(C(=O)O)n4)CC3)C2)c1` [Compound 582, 2-((R)-3-((S)-2-hydroxy-3-(3-(N-methylsulfamoyl)phenoxy)propylamino)-1-oxa-8-azaspiro[4.5]decan-8-yl)pyrimidine-4-carboxylic acid]: the IC50 stood at 100000 nM.

Regarding `CNS(=O)(=O)c1cccc(OC[C@@H](O)CN[C@H]2COC3(CCN(c4ncc(C(F)(F)F)cn4)CC3)C2)c1` [Compound 583, 3-((S)-2-hydroxy-3-((R)-8-(5-(trifluoromethyl)pyrimidin-2-yl)-1-oxa-8-azaspiro[4.5]decan-3-ylamino)propoxy)-N-methylbenzenesulfonamide], the IC50 stood at 1840 nM.

With `CNS(=O)(=O)c1cccc(OC[C@@H](O)CN[C@H]2COC3(CCN(c4nc(OC)cc(OC)n4)CC3)C2)c1` [Compound 584, 3-((S)-3-((R)-8-(4,6-dimethoxypyrimidin-2-yl)-1-oxa-8-azaspiro[4.5]decan-3-ylamino)-2-hydroxypropoxy)-N-methylbenzenesulfonamide], the IC50 came out at 266 nM.

Take `CNS(=O)(=O)c1cccc(OC[C@@H](O)CN[C@H]2COC3(CCN(c4cnc(C(F)(F)F)cn4)CC3)C2)c1` [Compound 585, 3-((S)-2-hydroxy-3-((R)-8-(5-(trifluoromethyl)pyrazin-2-yl)-1-oxa-8-azaspiro[4.5]decan-3-ylamino)propoxy)-N-methylbenzenesulfonamide]: the IC50 was 202 nM.

Take `CNS(=O)(=O)c1cccc(OC[C@@H](O)CN[C@H]2COC3(CCN(c4cnccn4)CC3)C2)c1` [Compound 586, 3-((S)-2-hydroxy-3-((R)-8-(pyrazin-2-yl)-1-oxa-8-azaspiro[4.5]decan-3-ylamino)propoxy)-N-methylbenzenesulfonamide]: the IC50 came to 762 nM.

Regarding `CCn1ccc(=O)c(S(=O)(=O)N2CCC3(CC2)C[C@@H](NC[C@H](O)COc2cccc(S(N)(=O)=O)c2)CO3)c1` [Compound 587, 3-((S)-3-((R)-8-(1-ethyl-4-oxo-1,4-dihydropyridin-3-ylsulfonyl)-1-oxa-8-azaspiro[4.5]decan-3-ylamino)-2-hydroxypropoxy)benzenesulfonamide], the IC50 amounted to 2390 nM.

Turning to `CCn1ccc(=O)c(S(=O)(=O)N2CCC3(CC2)C[C@@H](NC[C@H](O)COc2cccc(S(=O)(=O)NC)c2)CO3)c1` [Compound 588, 3-((S)-3-((R)-8-(1-ethyl-4-oxo-1,4-dihydropyridin-3-ylsulfonyl)-1-oxa-8-azaspiro[4.5]decan-3-ylamino)-2-hydroxypropoxy)-N-methylbenzenesulfonamide], the IC50 came out at 1960 nM.

In the case of `CNS(=O)(=O)c1cccc(OC[C@@H](O)CN[C@H]2COC3(CCN(c4ccncn4)CC3)C2)c1` [Compound 589, 3-((S)-2-hydroxy-3-((R)-8-(pyrimidin-4-yl)-1-oxa-8-azaspiro[4.5]decan-3-ylamino)propoxy)-N-methylbenzenesulfonamide], the IC50 was 1450 nM.

In the case of `Cc1cc(S(=O)(=O)N2CCC3(CC2)C[C@@H](NC[C@H](O)COc2cccc(S(N)(=O)=O)c2)CO3)ccc1Br` [Compound 590, 3-((S)-3-((R)-8-(4-bromo-3-methylphenylsulfonyl)-1-oxa-8-azaspiro[4.5]decan-3-ylamino)-2-hydroxypropoxy)benzenesulfonamide], the IC50 worked out at 17.4 nM.

Consider `NS(=O)(=O)c1cccc(OC[C@@H](O)CN[C@H]2COC3(CCN(S(=O)(=O)c4cccc(Cl)c4)CC3)C2)c1` [Compound 591, 3-((S)-3-((R)-8-(3-chlorophenylsulfonyl)-1-oxa-8-azaspiro[4.5]decan-3-ylamino)-2-hydroxypropoxy)benzenesulfonamide], for which the IC50 is 149 nM.

As for `CNS(=O)(=O)c1cccc(OC[C@@H](O)CN[C@H]2COC3(CCN(S(=O)(=O)c4cccc(Cl)c4)CC3)C2)c1` [Compound 592, 3-((S)-3-((R)-8-(3-chlorophenylsulfonyl)-1-oxa-8-azaspiro[4.5]decan-3-ylamino)-2-hydroxypropoxy)-N-methylbenzenesulfonamide], the IC50 is 21 nM.

The next assay has as its system chronic heart failure (CHF) rats. As to the kind of experiment: Chronic heart failure (CHF) rat model, attenuation of negative contractile effects of BRL 37344 on left ventricular pressure. It counts as in vivo. The note with it: 10 min infusion at 3, 10, 30 mg/kg/hr, then bolus of BRL (3 μg/kg). As to the method:
Beta-3 adrenergic receptor antagonists can be evaluated for effects on cardiac contractility in chronic heart failure (CHF) rats. Beta-3 adrenergic receptor expression is weak in the normal rat heart and higher in the rat heart with CHF. Because beta-3 adrenergic receptor expression is higher in the rat heart with CHF, a compound of the present invention was evaluated for the ability to attenuate the negative contractile effects of the beta-3 adrenergic receptor agonist BRL 37344 (BRL) compared to baseline in this CHF rat model.
Myocardial infarction was induced in male Sprague-Dawley rats by performing left coronary descending artery ligation. […]
Heart failure was evaluated weekly following surgery by testing impaired left ventricular function by echocardiography. Left ventricle end-diastolic volume (LVEDV) and left ventricle end-systolic volume (LVESV) were measured for at least three consecutive cardiac cycles in long-axis view images. Ejection Fraction (EF %) was calculated using the following formula: EF %=(LVEDV-LVESV)/LVEDV. […]
A direct determination of left ventricular function was used for all rats to evaluate the effects of compounds on left ventricular contractility. […] Left ventricular pressure (LVP) was monitored by LabChart with POWERLAB® Data Acquisition System (ADInstruments, Sydney, Australia). […]
In the case of `CNS(=O)(=O)c1cccc(OC[C@@H](O)CN[C@H]2COC3(CCN(S(=O)(=O)c4cnc5cc[nH]c5c4)CC3)C2)c1` [Compound 505, 3-((S)-3-((R)-8-(1H-pyrrolo[3,2-b]pyridin-6-ylsulfonyl)-1-oxa-8-azaspiro[4.5]decan-3-ylamino)-2-hydroxypropoxy)-N-methylbenzenesulfonamide], the “left ventricular pressure (LVP)” value is “dose-dependent improvement; also recorded: inhibition of negative effects of BRL on left ventricular pressure (LVP)”.
